Consider 15 compounds from patent publication US20240409585A1, “MACROCYCLIC IMMUNOMODULATORS” (priority 2021, published 2024).

Structures are written as SMILES. Numbered stars: 1 amine (or outer) side, 2 acyl side, 3 side chain; on linkers, the order of the positions; unused ones are H or OH. Bridge positions count the residues as written; N and C are the ends. Square brackets hold non-standard residues; d marks the D form. Peptide text beside a SMILES is read from it. * marks the point of attachment. ξ: configuration not given here. X29 = O=C([C@H](Cc1ccc(-c2cc(F)cc(F)c2)cc1)N[*:1])[*:2]; X35 = O=C([C@H](Cc1ccc(-c2cccc(F)c2)cc1)N[*:1])[*:2]; Bip = N[C@@H](Cc1ccc(-c2ccccc2)cc1)C(=O)O; Phe(3-Cl) = N[C@@H](Cc1cccc(Cl)c1)C(=O)O; Phe(2-Br) = N[C@@H](Cc1ccccc1Br)C(=O)O; Phe(3-Me) = Cc1cccc(C[C@H](N)C(=O)O)c1; Val(3-OH) = CC(C)(O)[C@H](N)C(=O)O; 3Pal = N[C@@H](Cc1cccnc1)C(=O)O; 4Pal = N[C@@H](Cc1ccncc1)C(=O)O; Cha = N[C@@H](CC1CCCCC1)C(=O)O; Cit = NC(=O)NCCC[C@H](N)C(=O)O; Ile(3ξ) = CCC(C)[C@H](N)C(=O)O; Thr(3ξ) = CC(O)[C@H](N)C(=O)O; Dap(Me) = CNC[C@H](N)C(=O)O; Carboxymethyl = O=C(O)C*; NMeA = CN[C@@H](C)C(=O)O; Dab = NCC[C@H](N)C(=O)O; Dap = NC[C@H](N)C(=O)O; Ac3c = NC1(C(=O)O)CC1

As a reminder, the IC50 is the concentration needed to halve the response being measured.

The target of the test is T1, PE-labeled human PD-L1-Ig binding to Jurkat cell line over-expressing human PD-1 (Jurkat-PD-1) (Homo sapiens, UniProt Q15116).
T1 construct: expressed in transfected cells; host or cells: Jurkat
T1 sequence (Q15116 25-288): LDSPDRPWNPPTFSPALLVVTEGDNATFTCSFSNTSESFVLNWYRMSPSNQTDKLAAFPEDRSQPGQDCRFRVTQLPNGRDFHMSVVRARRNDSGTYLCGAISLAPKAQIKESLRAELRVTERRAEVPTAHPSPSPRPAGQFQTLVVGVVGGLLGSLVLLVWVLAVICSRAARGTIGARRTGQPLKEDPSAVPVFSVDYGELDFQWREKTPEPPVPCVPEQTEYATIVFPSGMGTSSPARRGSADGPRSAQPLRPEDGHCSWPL
Description: Jurkat-PD-1 Cell Binding High-Content Screening Assay (CBA): Method 1. The conditions noted are these: Jurkat-hPD-1 cells, PE-labeled PD-L1-Ig 20 nM final; read-out: Jurkat HPDL1 PD1 IC50 (uM) (Method 1).
Turning to `CC(C)C[C@@H]1NC(=O)[C@H](CCN)NC(=O)[C@@H](CC(C)C)NC(=O)[C@H](C)N(C)C(=O)[C@H](CCCNC(=N)N)NC(=O)[C@H](Cc2ccc(-c3cc(F)cc(F)c3)cc2)NC(=O)[C@H](C(C)C)NC(=O)[C@H](Cc2c[nH]c3ccccc23)NC(=O)[C@H](CC(=O)O)NC(=O)[C@H](Cc2ccc(O)cc2)NC(=O)[C@H](CC(N)=O)NC(=O)CSC[C@@H](C(=O)N[C@@H](C)C(N)=O)NC(=O)[C@H]([C@@H](C)O)NC(=O)[C@H](C(C)C)NC1=O` [Compound 1220] ({CH2CO}-NYDWV[X29]R[NMeA][dL][Dab]LVTCA-NH2; thioether N-14), the IC50 is 0.26 µM.

For the compound `CCC(C)[C@@H]1NC(=O)[C@H](Cc2ccc(-c3ccccc3)cc2)NC(=O)[C@H](C(C)C)NC(=O)[C@H](Cc2c[nH]c3ccccc23)NC(=O)[C@H](CC(=O)O)NC(=O)[C@H](Cc2ccc(O)cc2)NC(=O)[C@H](CNC)NC(=O)CSC[C@@H](C(=O)N[C@@H](C)C(N)=O)NC(=O)[C@H](C(C)O)NC(=O)[C@H](C(C)C)NC(=O)[C@H](CC2CCCCC2)NC(=O)[C@H](CCN)NC(=O)[C@@H](CC(C)C)NC(=O)[C@H](C)N(C)C1=O` (stereo partly drawn) [Compound 2050] ({CH2CO}-[Dap(Me)]YDWV[Bip][Ile(3ξ)][NMeA][dL][Dab][Cha]V[Thr(3ξ)]CA-NH2; thioether N-14), the IC50 stood at 0.01 µM.

Take `CC(C)C[C@@H]1NC(=O)[C@H](CCN)NC(=O)[C@@H](CC(C)C)NC(=O)[C@H](C)N(C)C(=O)[C@H](CCCNC(N)=O)NC(=O)[C@H](Cc2ccc(-c3ccccc3)cc2)NC(=O)[C@H](C(C)C)NC(=O)[C@H](Cc2cccc(Cl)c2)NC(=O)[C@H](CC(=O)O)NC(=O)[C@H](Cc2ccc(O)cc2)NC(=O)[C@H](CC(N)=O)NC(=O)CSC[C@@H](C(=O)N[C@@H](C)C(N)=O)NC(=O)[C@H]([C@@H](C)O)NC(=O)[C@H](C(C)C)NC1=O` [Compound 1190] ({CH2CO}-NYD[Phe(3-Cl)]V[Bip][Cit][NMeA][dL][Dab]LVTCA-NH2; thioether N-14): the IC50 is 0.02 µM.

In the case of `Cc1cccc(C[C@@H]2NC(=O)[C@H](CC(=O)O)NC(=O)[C@H](Cc3ccc(OCC(=O)O)cc3)NC(=O)[C@H]([C@@H](C)O)NC(=O)CSC[C@@H](C(N)=O)NC(=O)[C@H](CCC(=O)O)NC(=O)[C@H](C(C)C)NC(=O)[C@H](CC3CCCCC3)NC(=O)[C@H](CCN)NC(=O)[C@@H](CC(C)C)NC(=O)[C@H](C)N(C)C(=O)[C@H](Cc3ccc(OCC(=O)O)cc3)NC(=O)[C@H](Cc3ccc(-c4ccccc4)cc3)NC(=O)[C@H](Cc3ccc(OCC(=O)O)cc3)NC2=O)c1` [Compound 1673] ({CH2CO}-TY(Carboxymethyl)D[Phe(3-Me)]Y(Carboxymethyl)[Bip]Y(Carboxymethyl)[NMeA][dL][Dab][Cha]VEC-NH2; thioether N-14), the IC50 was 0.09 µM.

Consider `CC(C)C[C@@H]1NC(=O)[C@H](CCCNC(=N)N)NC(=O)[C@@H](CC(C)C)NC(=O)[C@H]2CCCN2C(=O)[C@H](CCCNC(=N)N)NC(=O)[C@H](Cc2ccc(-c3ccccc3)cc2)NC(=O)[C@H](C(C)C)NC(=O)[C@H](Cc2c[nH]c3ccccc23)NC(=O)[C@H](CC(=O)O)NC(=O)[C@H](Cc2ccc(O)cc2)NC(=O)[C@H](CC(N)=O)NC(=O)CSC[C@@H](C(=O)N[C@@H](C)C(N)=O)NC(=O)[C@H]([C@@H](C)O)NC(=O)[C@H](C(C)C)NC1=O` [Compound 1214] ({CH2CO}-NYDWV[Bip]R[dP][dL]RLVTCA-NH2; thioether N-14), for which the IC50 worked out at 0.05 µM.

Take `CC(C)C[C@@H]1NC(=O)[C@H](Cc2c[nH]c3ccccc23)NC(=O)[C@H](CC(=O)O)NC(=O)[C@H](Cc2ccc(O)cc2)NC(=O)[C@H](Cc2ccccc2)NC(=O)CSC[C@@H](C(=O)N[C@@H](C)C(N)=O)NC(=O)[C@H](CO)NC(=O)[C@H](C(C)C)NC(=O)[C@H](CC(C)C)NC(=O)[C@H](CC(N)=O)NC(=O)[C@@H](C)NC(=O)[C@H](C)N(C)C(=O)[C@H](C(C)C)NC(=O)[C@H](Cc2ccc(-c3cccc(F)c3)cc2)NC1=O` [Compound 1759] ({CH2CO}-FYDWL[X35]V[NMeA][dA]NLVSCA-NH2; thioether N-14): the IC50 amounted to 0.03 µM.

On to `CC(C)C[C@@H]1NC(=O)[C@H](Cc2c[nH]c3ccccc23)NC(=O)[C@H](CC(=O)O)NC(=O)[C@H](Cc2ccc(OCC(=O)O)cc2)NC(=O)[C@H](Cc2ccccc2)NC(=O)CSC[C@@H](C(N)=O)NC(=O)[C@H](CO)NC(=O)[C@H](C(C)C)NC(=O)[C@H](CC(C)C)NC(=O)[C@H](CC(N)=O)NC(=O)[C@@H](CC(C)C)NC(=O)[C@H](C)N(C)C(=O)[C@H](CCCNC(N)=O)NC(=O)[C@H](Cc2ccc(-c3ccccc3)cc2)NC1=O` [Compound 1627] ({CH2CO}-FY(Carboxymethyl)DWL[Bip][Cit][NMeA][dL]NLVSC-NH2; thioether N-14), for which the IC50 was determined as 0.06 µM.

Turning to `CC(C)C[C@@H]1NC(=O)[C@H](Cc2c[nH]c3ccccc23)NC(=O)[C@H](CC(=O)O)NC(=O)[C@H](Cc2ccccc2Br)NC(=O)[C@H](Cc2ccccc2)NC(=O)CSC[C@@H](C(=O)N[C@@H](C)C(N)=O)NC(=O)[C@H](CO)NC(=O)[C@H](C(C)C)NC(=O)[C@H](CC(C)C)NC(=O)[C@H](CC(N)=O)NC(=O)[C@@H](C)NC(=O)[C@H](C)N(C)C(=O)[C@H](C(C)C)NC(=O)[C@H](Cc2ccc(-c3ccccc3)cc2)NC1=O` [Compound 1823] ({CH2CO}-F[Phe(2-Br)]DWL[Bip]V[NMeA][dA]NLVSCA-NH2; thioether N-14), the IC50 turned out to be 0.6 µM.

Consider `Cc1cccc(C[C@@H]2NC(=O)[C@H](CC(=O)O)NC(=O)[C@H](Cc3ccc(OCC(=O)O)cc3)NC(=O)[C@H](C(C)O)NC(=O)CSC[C@@H](C(=O)N[C@H](CC(N)=O)C(N)=O)NC(=O)[C@H](CO)NC(=O)[C@H](C(C)(C)O)NC(=O)[C@H](CC3CCCCC3)NC(=O)[C@H](CCN)NC(=O)[C@@H](CC(C)C)NC(=O)[C@H](C)N(C)C(=O)[C@H](Cc3ccc(O)cc3)NC(=O)[C@H](Cc3ccc(-c4ccccc4)cc3)NC(=O)[C@H](Cc3ccc(O)cc3)NC2=O)c1` (stereo partly drawn) [Compound 2142] ({CH2CO}-[Thr(3ξ)]Y(Carboxymethyl)D[Phe(3-Me)]Y[Bip]Y[NMeA][dL][Dab][Cha][Val(3-OH)]SC[dN]-NH2; thioether N-14), for which the IC50 came out at 0.18 µM.

Regarding `Cc1cccc(C[C@@H]2NC(=O)[C@H](CC(=O)O)NC(=O)[C@H](Cc3ccc(OCC(=O)O)cc3)NC(=O)[C@H]([C@@H](C)O)NC(=O)CSC[C@@H](C(=O)NC3(C(N)=O)CC3)NC(=O)[C@H](CO)NC(=O)[C@H](C(C)C)NC(=O)[C@H](CC3CCCCC3)NC(=O)[C@H](CCN)NC(=O)[C@@H](CC(C)C)NC(=O)[C@H](C)N(C)C(=O)[C@H](Cc3ccc(OCC(=O)O)cc3)NC(=O)[C@H](Cc3ccc(-c4ccccc4)cc3)NC(=O)[C@H](Cc3ccc(OCC(=O)O)cc3)NC2=O)c1` [Compound 1862] ({CH2CO}-TY(Carboxymethyl)D[Phe(3-Me)]Y(Carboxymethyl)[Bip]Y(Carboxymethyl)[NMeA][dL][Dab][Cha]VSC[Ac3c]-NH2; thioether N-14), the IC50 worked out at 0.04 µM.

Consider `Cc1cccc(C[C@@H]2NC(=O)[C@H](CC(=O)O)NC(=O)[C@H](Cc3ccc(OCC(=O)O)cc3)NC(=O)[C@H](Cc3ccncc3)NC(=O)CSC[C@@H](C(=O)N[C@H](CC(N)=O)C(N)=O)NC(=O)[C@H](CO)NC(=O)[C@H](C(C)(C)O)NC(=O)[C@H](CC3CCCCC3)NC(=O)[C@H](CCN)NC(=O)[C@@H](CC(C)C)NC(=O)[C@H](C)N(C)C(=O)[C@H](Cc3ccc(O)cc3)NC(=O)[C@H](Cc3ccc(-c4ccccc4)cc3)NC(=O)[C@H](Cc3ccc(O)cc3)NC2=O)c1` [Compound 2140] ({CH2CO}-[4Pal]Y(Carboxymethyl)D[Phe(3-Me)]Y[Bip]Y[NMeA][dL][Dab][Cha][Val(3-OH)]SC[dN]-NH2; thioether N-14), for which the IC50 was determined as 0.1 µM.

In the case of `CC(C)C[C@@H]1NC(=O)[C@H](CCN)NC(=O)[C@@H](CC(C)C)NC(=O)[C@H](C)N(C)C(=O)[C@H](CCCNC(N)=O)NC(=O)[C@H](Cc2ccc(-c3ccccc3)cc2)NC(=O)[C@H](C(C)C)NC(=O)[C@H](Cc2c[nH]c3ccccc23)NC(=O)[C@H](CC(=O)O)NC(=O)[C@H](Cc2ccc(OCC(=O)O)cc2)NC(=O)[C@H](Cc2cccnc2)NC(=O)CSC[C@@H](C(=O)N[C@@H](C)C(N)=O)NC(=O)[C@H]([C@@H](C)O)NC(=O)[C@H](C(C)C)NC1=O` [Compound 1331] ({CH2CO}-[3Pal]Y(Carboxymethyl)DWV[Bip][Cit][NMeA][dL][Dab]LVTCA-NH2; thioether N-14), the IC50 was 0.01 µM.

Take `CC(C)C[C@H]1NC(=O)[C@H](C)N(C)C(=O)[C@H](CCCNC(N)=O)NC(=O)[C@H](Cc2ccc(-c3ccccc3)cc2)NC(=O)[C@H](C(C)C)NC(=O)[C@H](Cc2c[nH]c3ccccc23)NC(=O)[C@H](CC(=O)O)NC(=O)[C@H](Cc2ccc(O)cc2)NC(=O)[C@H](Cc2ccccc2)NC(=O)CSC[C@@H](C(=O)N[C@@H](C)C(N)=O)NC(=O)[C@H]([C@@H](C)O)NC(=O)[C@H](C(C)C)NC(=O)[C@H](CC2CCCCC2)NC(=O)[C@H](CCCNC(=N)N)NC1=O` [Compound 1505] ({CH2CO}-FYDWV[Bip][Cit][NMeA][dL]R[Cha]VTCA-NH2; thioether N-14): the IC50 was 0.02 µM.

Regarding `CC(C)C[C@@H]1NC(=O)[C@H](CCN)NC(=O)[C@@H](CC(C)C)NC(=O)[C@H](C)N(C)C(=O)[C@H](CCCNC(=N)N)NC(=O)[C@H](Cc2ccc(-c3ccccc3)cc2)NC(=O)[C@H](C(C)C)NC(=O)[C@H](Cc2c[nH]c3ccccc23)NC(=O)[C@H](CC(=O)O)NC(=O)[C@H](Cc2ccc(O)cc2)NC(=O)[C@H](CC(N)=O)NC(=O)CSC[C@@H](C(=O)NCC(N)=O)NC(=O)[C@H](CO)NC(=O)[C@H](C(C)C)NC1=O` [Compound 1247] ({CH2CO}-NYDWV[Bip]R[NMeA][dL][Dab]LVSCG-NH2; thioether N-14), the IC50 was 0.06 µM.

In the case of `CC[C@H](C)[C@@H]1NC(=O)[C@H](Cc2ccc(-c3ccccc3)cc2)NC(=O)[C@H](C(C)C)NC(=O)[C@H](Cc2c[nH]c3ccccc23)NC(=O)[C@H](CC(=O)O)NC(=O)[C@H](Cc2ccc(O)cc2)NC(=O)[C@H](CN)NC(=O)CSC[C@@H](C(=O)N[C@@H](C)C(N)=O)NC(=O)[C@H]([C@@H](C)O)NC(=O)[C@H](C(C)C)NC(=O)[C@H](CC2CCCCC2)NC(=O)[C@H](CCCNC(=N)N)NC(=O)[C@@H](CC(C)C)NC(=O)[C@H](C)N(C)C1=O` [Compound 1492] ({CH2CO}-[Dap]YDWV[Bip]I[NMeA][dL]R[Cha]VTCA-NH2; thioether N-14), the IC50 came to 0.04 µM.
